Laboratory results from patent publication US6620828B2, “Thiazole compounds and pharmaceutical compositions for inhibiting protein kinases and methods for their use” (Agouron Pharmaceuticals, Inc., priority 1999, dated 2003).
One block for each compound: values may come before it.

Legend:
FL-CHK1 = molecular target: T1, FL-CHK1 (Homo sapiens, UniProt O14757); test: CHK1 assay; assay type: biochemical; set-up: CHK1^b: unit not given here; settings: Table A combinatorial examples; footnote b not given
T1 construct: C-terminally His-tagged full-length human CHK1 (FL-CHK1); 6xHis (C); made in house; host or cells: baculovirus/insect cells
T1 sequence (O14757 1-476): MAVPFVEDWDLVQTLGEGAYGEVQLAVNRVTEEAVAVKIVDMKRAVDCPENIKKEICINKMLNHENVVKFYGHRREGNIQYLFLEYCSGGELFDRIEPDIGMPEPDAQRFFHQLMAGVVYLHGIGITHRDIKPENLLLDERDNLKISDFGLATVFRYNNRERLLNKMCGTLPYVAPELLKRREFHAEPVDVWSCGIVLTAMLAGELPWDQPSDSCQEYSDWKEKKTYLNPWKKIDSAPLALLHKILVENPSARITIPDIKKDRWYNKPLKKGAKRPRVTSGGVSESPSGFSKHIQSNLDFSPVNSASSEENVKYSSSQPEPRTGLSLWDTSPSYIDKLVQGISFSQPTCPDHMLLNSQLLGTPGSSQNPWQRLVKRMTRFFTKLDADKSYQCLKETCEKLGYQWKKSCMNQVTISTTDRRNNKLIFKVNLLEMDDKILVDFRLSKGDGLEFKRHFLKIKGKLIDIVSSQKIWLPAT
Description: CHK-1 Construct for Assay: C-terminally His-tagged full-length human CHK1 (FL-CHK1) was expressed using the baculovirus/insect cell system. It contains 6 histidine residues (6×His-tag) at the C-terminus of the 476 amino acid human CHK1. The protein was purified by conventional chromatographic techniques.
The production of ADP from ATP that accompanies phosphoryl transfer to the synthetic substrate peptide Syntide-2 ([…]) was coupled to oxidation of NADH using phosphoenolpyruvate (PEP) through the actions of pyruvate kinase (PK) and lactic dehydrogenase (LDH). The oxidation of NADH was monitored by following the decrease of absorbance at 340 nm (ε340=6.22 cm^−1 mM^−1) using a HP8452 spectrophotometer. Typical reaction solutions contained: […]; 0.15 mM NADH; 28 units of LDH/ml; 16 units of PK/ml; 3 mM DTT; 0.125 mM Syntide-2; 0.15 mM ATP; 25 mM MgCl2 in 50 mM TRIS, pH 7.5; and 400 mM NaCl. Assays were initiated with 10 nM of FL-CHK1. Ki values were determined by measuring initial enzyme activity in the presence of varying concentrations of test compounds. The data were analyzed using Enzyme Kinetic and Kaleidagraph software.

CDK2/Cyclin A complex = CDK2/Cyclin A complex (Homo sapiens, UniProt P24941); test: CDK2/Cyclin A assay; assay type: biochemical; set-up: CDK2^c: concentration or dose not given beside the values; settings: Table A combinatorial examples; footnote c not given
Description: CDK2/Cyclin A Construct for Assay: CDK2 was purified using published methodology (Rosenblatt et al., J. Mol. Biol., 230, 1317-1319 (1993)) from insect cells that had been infected with a baculovirus expression vector. Cyclin A was purified from E. coli cells expressing full-length recombinant cyclin A, and a truncated cyclin A construct was generated by limited proteolysis and purified as described previously (Jeffrey et al., Nature, 376, 313-320 (Jul. 27, 1995)).
CDK2/Cyclin A and CDK4/Cyclin D Assays
Cyclin-dependent kinase activity was measured by quantifying the enzyme-catalyzed, time-dependent incorporation of radioactive phosphate from [^32P]ATP into a recombinant fragment of the retinoblastoma protein. Unless noted otherwise, assays were performed in 96-well plates in a total volume of 50 μL, in the presence of 10 mM HEPES (N-[2-hydroxyethyl]piperazine-N′-[2-ethanesulfonic acid]) (pH 7.4), 10 mM MgCl2, 25 μM adenosine triphosphate (ATP), 1 mg/mL ovalbumin, 5 μg/mL leupeptin, 1 mM dithiothreitol, 10 mM β-glycerophosphate, 0.1 mM sodium vanadate, 1 mM sodium fluoride, 2.5 mM ethylene glycol-bis(β-aminoethyl ether)-N,N,N′N′-tetraacetic acid (EGTA), 2% (v/v) dimethylsulfoxide, and 0.03-0.2 μCi [^32P]ATP. The substrate (0.3-0.5 μg) was purified recombinant retinoblastoma protein fragment (Rb) (residues 386-928 of the native retinoblastoma protein; 62.3 kDa, containing the majority of the phosphorylation sites found in the native 106-kDa protein, as well as a tag of six histidine residues for ease of purification). Reactions were initiated with CDK2 (150 nM CDK2/Cyclin A complex) or CDK4 (50 nM CDK4/Cyclin D3 complex), incubated at 30° C., and terminated after 20 minutes by the addition of ethylenediaminetetraacetic acid EDTA) to 250 mM. The phosphorylated substrate was then captured on a nitrocellulose membrane using a 96-well filtration manifold, and unincorporated radioactivity was removed by repeated washing with 0.85% phosphoric acid. Radioactivity was quantified by exposing the dried nitrocellulose membranes to a phosphorimager. Apparent Ki values were measured by assaying enzyme activity in the presence of different compound concentrations and subtracting the background radioactivity measured in the absence of enzyme. The kinetic parameters (kcat, Km for ATP) were measured for each enzyme under the usual assay conditions by determining the dependence of initial rates on ATP concentration. The data were fit to an equation for competitive inhibition using Kaleidagraph (Synergy Software), or were fit to an equation for competitive tight-binding inhibition using the software KineTic (BioKin, Ltd.). Measured Ki values for known inhibitors against CDK4 and CDK2 agreed with published IC50 values. The specific activity of CDK4 was the same whether complexed to full-length cyclin D3 or the truncated Cyclin D3 construct; both complexes also yielded very similar Ki values for selected inhibitors.

SMILES: COc1cc(Nc2nc(N)c(-c3nc(-c4ccc(-c5ccc(Cl)cc5Cl)o4)cs3)s2)cc(OC)c1OC
CHK1^b (FL-CHK1): 23
CDK2^c (CDK2/Cyclin A complex): 12.4

SMILES: COc1ccccc1-c1csc(-c2sc(Nc3cc(OC)c(OC)c(OC)c3)nc2N)n1
CHK1^b (FL-CHK1): 20
CDK2^c (CDK2/Cyclin A complex): −3.5

SMILES: COc1ccc(OC)c(-c2csc(-c3sc(Nc4cc(OC)c(OC)c(OC)c4)nc3N)n2)c1
CHK1^b (FL-CHK1): 6.1
CDK2^c (CDK2/Cyclin A complex): 12.2

SMILES: COc1cc(Nc2nc(N)c(-c3nc(-c4ccccc4[N+](=O)O)cs3)s2)cc(OC)c1OC
CHK1^b (FL-CHK1): 36.6
CDK2^c (CDK2/Cyclin A complex): 1.9

SMILES: COc1cc(Nc2nc(N)c(-c3nc(-c4ccc([N+](=O)[O-])cc4)cs3)s2)cc(OC)c1OC
CHK1^b (FL-CHK1): 15.2
CDK2^c (CDK2/Cyclin A complex): −14.4

SMILES: COc1cc(Nc2nc(N)c(-c3nc(-c4ccc(-c5ccccc5)cc4)cs3)s2)cc(OC)c1OC
CHK1^b (FL-CHK1): 18.7
CDK2^c (CDK2/Cyclin A complex): 20.4

SMILES: COc1cc(Nc2nc(N)c(-c3nc(-c4ccc(C#N)cc4)cs3)s2)cc(OC)c1OC
CHK1^b (FL-CHK1): 10.3
CDK2^c (CDK2/Cyclin A complex): 15.6

SMILES: COc1cc(Nc2nc(N)c(-c3nc(-c4c(-c5ccccc5)noc4C)cs3)s2)cc(OC)c1OC
CHK1^b (FL-CHK1): 17.9
CDK2^c (CDK2/Cyclin A complex): 13.6

SMILES: COc1cc(Nc2nc(N)c(-c3nc(-c4ccc5c(c4)OCCO5)cs3)s2)cc2c1OCCO2
CHK1^b (FL-CHK1): 32.9
CDK2^c (CDK2/Cyclin A complex): 5.4

SMILES: COc1cc(Nc2nc(N)c(-c3nc(-c4ccc(OC(=O)c5ccccc5)cc4)cs3)s2)cc(OC)c1OC
CHK1^b (FL-CHK1): 22.3
CDK2^c (CDK2/Cyclin A complex): 14.6

SMILES: COc1cc(Nc2nc(N)c(-c3nc(-c4ccc(Cl)c(Cl)c4)cs3)s2)cc(OC)c1OC
CHK1^b (FL-CHK1): 12.1
CDK2^c (CDK2/Cyclin A complex): 7.3

SMILES: COc1cc(Nc2nc(N)c(-c3nc(-c4c(Cl)c(Cl)nc(Cl)c4Cl)cs3)s2)cc(OC)c1OC
CHK1^b (FL-CHK1): 48.8
CDK2^c (CDK2/Cyclin A complex): 10.3

SMILES: CCOC(=O)c1ccccc1-c1csc(-c2sc(Nc3cc(OC)c(OC)c(OC)c3)nc2N)n1
CHK1^b (FL-CHK1): 41.4
CDK2^c (CDK2/Cyclin A complex): 4.4

SMILES: COc1cc(Nc2nc(N)c(-c3nc(-c4cc(-c5ccccc5)no4)cs3)s2)cc(OC)c1OC
CHK1^b (FL-CHK1): 2.7
CDK2^c (CDK2/Cyclin A complex): 11.2

SMILES: COc1cc(Nc2nc(N)c(-c3nc(-c4cc(-c5ccc(Cl)c(Cl)c5)no4)cs3)s2)cc(OC)c1OC
CHK1^b (FL-CHK1): 0.9
CDK2^c (CDK2/Cyclin A complex): 17.5

SMILES: CCCCCc1ccc(-c2csc(-c3sc(Nc4cc(OC)c(OC)c(OC)c4)nc3N)n2)cc1
CHK1^b (FL-CHK1): 8.9
CDK2^c (CDK2/Cyclin A complex): 11.3

SMILES: COc1cc(Nc2nc(N)c(-c3nc(-c4ccccc4OC(C)=O)cs3)s2)cc(OC)c1OC
CHK1^b (FL-CHK1): −7.4
CDK2^c (CDK2/Cyclin A complex): 1.6

SMILES: COc1cc(Nc2nc(N)c(-c3nc(-c4c(Cl)cc(C(F)(F)F)cc4Cl)cs3)s2)cc(OC)c1OC
CHK1^b (FL-CHK1): 26.2
CDK2^c (CDK2/Cyclin A complex): −6

SMILES: CCN(CC)c1ccc(-c2csc(-c3sc(Nc4cc(OC)c(OC)c(OC)c4)nc3N)n2)cc1
CHK1^b (FL-CHK1): 1.3
CDK2^c (CDK2/Cyclin A complex): 6.3

SMILES: COc1cc(Nc2nc(N)c(-c3nc(-c4csc5ccccc45)cs3)s2)cc(OC)c1OC
CHK1^b (FL-CHK1): 13.2
CDK2^c (CDK2/Cyclin A complex): 9.1

SMILES: COc1cc(Nc2nc(N)c(-c3nc(-c4cc5cc(Cl)ccc5o4)cs3)s2)cc2c1OCCO2
CHK1^b (FL-CHK1): 25.4
CDK2^c (CDK2/Cyclin A complex): −6

Second part, the compound after the results:

CHK1^b (FL-CHK1): 32
CDK2^c (CDK2/Cyclin A complex): −0.2
SMILES: COc1cc(Nc2nc(N)c(-c3nc(-c4cc(Br)c(Cl)s4)cs3)s2)cc(OC)c1OC

CHK1^b (FL-CHK1): 3.7
CDK2^c (CDK2/Cyclin A complex): −2.1
SMILES: COc1cc(Nc2nc(N)c(-c3nc(-c4ccc(C)cc4)cs3)s2)cc(OC)c1OC

CHK1^b (FL-CHK1): 9.9
CDK2^c (CDK2/Cyclin A complex): 4.9
SMILES: COc1ccc(-c2csc(-c3sc(Nc4cc(OC)c(OC)c(OC)c4)nc3N)n2)c(OC)c1

CHK1^b (FL-CHK1): 11.2
CDK2^c (CDK2/Cyclin A complex): 0.1
SMILES: COc1cc(Nc2nc(N)c(-c3nc(-c4ccc(Cl)cc4)cs3)s2)cc(OC)c1OC

CHK1^b (FL-CHK1): 2.7
CDK2^c (CDK2/Cyclin A complex): 23.2
SMILES: CCOC(=O)c1cc(-c2csc(-c3sc(Nc4cc(OC)c(OC)c(OC)c4)nc3N)n2)on1

CHK1^b (FL-CHK1): 11.7
CDK2^c (CDK2/Cyclin A complex): −4.4
SMILES: COc1cc(Nc2nc(N)c(-c3nc(-c4ccc(Cl)c(C)c4)cs3)s2)cc(OC)c1OC

CHK1^b (FL-CHK1): 31.3
CDK2^c (CDK2/Cyclin A complex): 3.8
SMILES: COc1cc(Nc2nc(N)c(-c3nc(-c4ccc(Cl)cc4Cl)cs3)s2)cc(OC)c1OC

CHK1^b (FL-CHK1): 48.3
CDK2^c (CDK2/Cyclin A complex): 35
SMILES: COc1cc(Nc2nc(N)c(-c3nc(-c4ccc(F)cc4)cs3)s2)cc(OC)c1OC

CHK1^b (FL-CHK1): 31.3
CDK2^c (CDK2/Cyclin A complex): 14.3
SMILES: COc1cc(Nc2nc(N)c(-c3nc(-c4ccc[nH]4)cs3)s2)cc(OC)c1OC

CHK1^b (FL-CHK1): 16.5
CDK2^c (CDK2/Cyclin A complex): −5
SMILES: COc1cc(Nc2nc(N)c(-c3nc(-c4ccc(F)c(F)c4)cs3)s2)cc(OC)c1OC

CHK1^b (FL-CHK1): 8.8
CDK2^c (CDK2/Cyclin A complex): 6.6
SMILES: COc1cc(Nc2nc(N)c(-c3nc(-c4cccc([N+](=O)[O-])c4)cs3)s2)cc(OC)c1OC

CHK1^b (FL-CHK1): 27.9
CDK2^c (CDK2/Cyclin A complex): 28.4
SMILES: COc1cc(Nc2nc(N)c(-c3nc(-c4cc(C)c(O)c(C)c4)cs3)s2)cc(OC)c1OC

CHK1^b (FL-CHK1): 21.2
CDK2^c (CDK2/Cyclin A complex): −0.4
SMILES: COc1cccc(-c2csc(-c3sc(Nc4cc(OC)c(OC)c(OC)c4)nc3N)n2)c1

CHK1^b (FL-CHK1): 48.3
CDK2^c (CDK2/Cyclin A complex): 19.8
SMILES: COc1cc(Nc2nc(N)c(-c3nc(-c4c(C)c(C)c(C)c(C)c4C)cs3)s2)cc(OC)c1OC

CHK1^b (FL-CHK1): 30.9
CDK2^c (CDK2/Cyclin A complex): −7.5
SMILES: COc1cc(Nc2nc(N)c(-c3nc(-c4cc(F)c(C)c(Cl)c4)cs3)s2)cc(OC)c1OC

CHK1^b (FL-CHK1): 6.4
CDK2^c (CDK2/Cyclin A complex): 3.9
SMILES: COc1cc(Nc2nc(N)c(-c3nc(-c4cc(C(=O)C(Cl)(Cl)Cl)n(C)c4)cs3)s2)cc(OC)c1OC

CHK1^b (FL-CHK1): 13.5
CDK2^c (CDK2/Cyclin A complex): 15.6
SMILES: COc1cc(Nc2nc(N)c(-c3nc(-c4cccc(Br)c4)cs3)s2)cc(OC)c1OC
